Experimental data as given in US7829665B2 (priority 2005, dated 2010).
Read-outs that look alike come from different tables or passages of the source.

Tests used:
[1] = test system: HCV sub-genomic replicon in GS4.3 cells (HuH-7 hepatoma cells); assay: Quantitation by ELISA of Neomycin phosphotransferase II (NPTII) in the HCV sub-genomic replicon, GS4.3; format: cell-based, hepatitis C virus; settings: Hepatitis C virus, Huh-7; GS4.3 cells, 72 h incubation, NPTII ELISA; read-out: Replicon EC50
How it was run: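 HuH-7 GS4.3 cells carrying HCV sub-genomic replicon 1377/NS3-3′, treated 72 h at 37 °C without G418 with 3-fold dilutions from 10 μM to 56 pM (1% DMSO). NPTII in cell lysates measured by direct ELISA with TMB readout at 450 nm. EC50 from 4-parameter fit of percent DMSO-control signal.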

[2] = target: T1, full-length NS3/NS4A-2 (HCV NS3 protease) (Hepatitis C virus genotype 1a, UniProt P27958); assay: NS3-NS4 protease assay / NS3 inhibition assay (RETS1 substrate, fluorescence kinetic read); format: biochemical
T1 construct: Recombinant E. coli or Baculovirus full-length NS3 was diluted to 3.33 μM with assay buffer; made in house; host or cells: E. coli or baculovirus (BV) expression system
T1 sequence (P27958 1027-1657): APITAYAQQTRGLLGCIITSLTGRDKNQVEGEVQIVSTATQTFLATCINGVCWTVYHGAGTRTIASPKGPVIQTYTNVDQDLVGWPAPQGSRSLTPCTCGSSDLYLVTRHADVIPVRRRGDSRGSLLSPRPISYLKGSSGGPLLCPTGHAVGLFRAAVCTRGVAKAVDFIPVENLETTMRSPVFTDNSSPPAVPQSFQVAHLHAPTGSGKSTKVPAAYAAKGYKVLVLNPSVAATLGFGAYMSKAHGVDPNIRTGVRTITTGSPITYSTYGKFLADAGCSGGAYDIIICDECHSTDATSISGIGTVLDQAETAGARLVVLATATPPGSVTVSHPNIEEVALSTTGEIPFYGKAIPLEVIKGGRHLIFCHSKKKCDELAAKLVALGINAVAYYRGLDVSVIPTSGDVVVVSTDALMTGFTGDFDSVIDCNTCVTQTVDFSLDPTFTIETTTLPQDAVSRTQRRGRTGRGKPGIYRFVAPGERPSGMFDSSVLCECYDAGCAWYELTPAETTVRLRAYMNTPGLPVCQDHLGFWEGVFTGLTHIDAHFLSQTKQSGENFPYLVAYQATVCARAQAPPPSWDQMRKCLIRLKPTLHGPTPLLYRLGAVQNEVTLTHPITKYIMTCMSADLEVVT
How it was run: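 Full-length NS3 from E. coli (2 nM in assay) or baculovirus (3 nM) was precomplexed with excess NS4A-2 peptide, then preincubated 10 min at room temperature with serially diluted compounds starting at 50 microM. Reaction was started with RETS1 substrate at 8 μM before addition and read kinetically for 30 min (ex 335/em 495 nm). Four-parameter IC50s were converted to Ki by Cheng-Prusoff using Km 2.03 μM (E. coli) or 1.74 μM (BV).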

[3] = recombinant E. coli or Baculovirus full-length NS3 with NS4A-2, read-out: NS3-NS4 IC50

SMILES | EC50 [1] [nM] | IC50 [2, 3] [nM] | IC50 [2] [nM]
CC(C)(C)OC(=O)N[C@H]1CCCCC/C=C\[C@@H]2C[C@@]2(C(=O)O)NC(=O)[C@@H]2C[C@@H](OC(=O)N3Cc4ccc(OCCNC5CC5)cc4C3)CN2C1=O [Compound 131] | < 10000 | < 100 | 
CC(C)(C)OC(=O)N[C@H]1CCCCC/C=C\[C@@H]2C[C@@]2(C(=O)NS(=O)(=O)C2CC2)NC(=O)[C@@H]2C[C@@H](OC(=O)N3Cc4cccc(Cl)c4C3)CN2C1=O [Compound 115] | < 100 | < 100 | 
CC(C)(C)OC(=O)N[C@H]1CCCC(F)(F)C/C=C\[C@@H]2C[C@@]2(C(=O)NS(=O)(=O)C2CC2)NC(=O)[C@@H]2C[C@@H](OC(=O)N3Cc4cccc(F)c4C3)CN2C1=O [Compound 1008, (2R,6S,13aS,14aR,16aS,Z)-6-(tert-butoxycarbonylamino)-14a-(cyclopropylsulfonylcarbamoyl)-9,9-difluoro-5,16-dioxo-1,2,3,5,6,7,8,9,10,11,13a,14,14a,15,16,16a-hexadecahydrocyclopropa(e)prrolo[1,2-a][1,4]diazacyclopentadecine 2-yl 4-fluoroisoindoline-2-carboxylate] | < 100 | < 100 | 
N[C@H]1CCCCC/C=C\[C@@H]2C[C@@]2(C(=O)NS(=O)(=O)NC2CCCC2)NC(=O)[C@@H]2C[C@@H](OC(=O)N3Cc4cccc(Cl)c4C3)CN2C1=O [Compound 221] | < 10000 | < 100 | 
CC(C)(C)OC(=O)N[C@H]1CCCCC/C=C\[C@@H]2C[C@@]2(C(=O)NS(=O)(=O)C2CC2)NC(=O)[C@@H]2C[C@@H](OC(=O)N3CCc4cccc(Cl)c4C3)CN2C1=O [Compound 255] | < 100 | < 100 | 
CC(C)(C)OC(=O)N[C@H]1CCCOCCC[C@@H]2C[C@@]2(C(=O)NS(=O)(=O)C2CC2)NC(=O)[C@@H]2C[C@@H](OC(=O)N3Cc4cccc(F)c4C3)CN2C1=O [Compound 1023, (2R,6S,13aR,14aR,16aS)-6-(tert-butoxycarbonylamino)-14a-(cyclopropylsulfonylcarbamoyl)-5,16-dioxohexadecahydro-1H-cyclopropa(e)pyrrolo[2,1-i][1,7,10]oxadiazacyclopentadecin-2-yl 4-fluoroisoindoline-2-carboxylate] | < 1000 |  | < 100
CC(C)Nc1c(N[C@H]2CCCCC/C=C\[C@@H]3C[C@@]3(C(=O)NS(=O)(=O)C3CC3)NC(=O)[C@@H]3C[C@@H](OC(=O)N4Cc5cccc(F)c5C4)CN3C2=O)c(=O)c1=O [Compound 184] | < 10000 | < 100 | 
CC(C)(C)OC(=O)N[C@H]1CCC(F)(F)CC/C=C\[C@@H]2C[C@@]2(C(=O)NS(=O)(=O)C2CC2)NC(=O)[C@@H]2C[C@@H](OC(=O)N3CCc4ccccc4C3)CN2C1=O [Compound 1014] | < 100 | < 100 | 
O=C1N[C@]2(C(=O)NS(=O)(=O)C3CC3)C[C@H]2/C=C\CCCCC[C@H](NCc2cccc(C(F)(F)F)c2)C(=O)N2C[C@H](OC(=O)N3Cc4cccc(F)c4C3)C[C@@H]12 [Compound 901, (1S,4R,6S,14S,18R)-14-(3-(trifluoromethyl)benzylamino)-4-(cyclopropanesulfonyl)aminocarbonyl-18-(4-fluoro-1,3-dihydro-isoindole-2-carbonyloxyl)-2,15-dioxo-3,16-diaza-tricyclo[14.3.0.0^4,6]nonadec-7-ene] | < 100 | < 100 | 
O=C(N[C@H]1CCCCC/C=C\[C@@H]2C[C@@]2(C(=O)NS(=O)(=O)N2CCCC2)NC(=O)[C@@H]2C[C@@H](OC(=O)N3Cc4cccc(F)c4C3)CN2C1=O)OC1CCCC1 [Compound 216] | < 100 | < 100 | 
CN(Cc1ccccc1)C(=O)O[C@@H]1C[C@H]2C(=O)N[C@]3(C(=O)NS(=O)(=O)C4CC4)C[C@H]3/C=C\CCCCC[C@H](NC(=O)OC(C)(C)C)C(=O)N2C1 [Compound 245] | < 1000 | < 100 | 
O=C(N[C@H]1CCCCC/C=C\[C@@H]2C[C@@]2(C(=O)NS(=O)(=O)NC2CC2)NC(=O)[C@@H]2C[C@@H](OC(=O)N3CCc4ccccc4C3)CN2C1=O)OC1CCCC1 [Compound 231] | < 100 | < 100 | 
O=C(N[C@H]1CCCCC/C=C\[C@@H]2C[C@@]2(C(=O)NS(=O)(=O)N2CC(F)(F)C2)NC(=O)C2C[C@@H](OC(=O)N3Cc4cccc(F)c4C3)CN2C1=O)OC1CCCC1 (stereo partly drawn) [Compound 229] | < 1000 | < 100 | 
CC(C)(C)OC(=O)N[C@H]1CCCCC/C=C\[C@@H]2C[C@@]2(C(=O)Nc2cc(C3CC3)[nH]n2)NC(=O)[C@@H]2C[C@@H](OC(=O)N3Cc4cccc(F)c4C3)CN2C1=O [Compound 630] | < 10000 | < 1000 | 
CC(C)(C)OC(=O)N[C@H]1CCCCC/C=C\[C@@H]2C[C@@]2(C(=O)O)NC(=O)[C@@H]2C[C@@H](OC(=O)Nc3nc4ccccc4s3)CN2C1=O [Compound 139] | > 10000 | < 1000 | 
CN(C)C(=O)[C@@]12C[C@H]1/C=C\CCCCC[C@H](NC(=O)OC(C)(C)C)C(=O)N1C[C@H](OC(=O)N3Cc4cccc(F)c4C3)C[C@H]1C(=O)N2 [Compound 610] | > 10000 | < 1000 | 
O=C(N[C@H]1CCCCC/C=C\[C@@H]2C[C@@]2(C(=O)NS(=O)(=O)Nc2ccc(Cl)cc2)NC(=O)[C@@H]2C[C@@H](OC(=O)N3Cc4cccc(F)c4C3)CN2C1=O)OC1CCCC1 [Compound 219] | < 10000 | < 100 | 

SMILES | EC50 [1] [nM] | IC50 [2, 3] [nM] | IC50 [2] [nM]
O=C(N[C@H]1CCCCC/C=C\[C@@H]2C[C@@]2(C(=O)NCC2CC2)NC(=O)[C@@H]2C[C@@H](OC(=O)N3CCc4ccccc4C3)CN2C1=O)OC1CCCC1 [Compound 644] | < 1000 | < 100 | 
CC(C)(C)OC(=O)N[C@H]1CCN(CC(F)(F)F)CC/C=C\[C@@H]2C[C@@]2(C(=O)NS(=O)(=O)C2CC2)NC(=O)[C@@H]2C[C@@H](OC(=O)N3Cc4cccc(F)c4C3)CN2C1=O [Compound 1032] | < 100 | < 100 | 
CC(C)(C)OC(=O)N[C@H]1CCCCC/C=C\[C@@H]2C[C@@]2(C(=O)NC(=O)C2CC2)NC(=O)[C@@H]2C[C@@H](OC(=O)N3Cc4ccccc4C3)CN2C1=O [Compound 701] | < 100 | < 100 | 
CC(C)(C)OC(=O)N[C@H]1CCCCC/C=C\[C@@H]2C[C@@]2(C(=O)NCC2(O)CC2)NC(=O)[C@@H]2C[C@@H](OC(=O)N3Cc4cccc(F)c4C3)CN2C1=O [Compound 619] | < 1000 | < 100 | 
O=C1N[C@]2(C(=O)NCC3CC3)C[C@H]2/C=C\CCCCC[C@H](NCc2ccc(F)c(F)c2)C(=O)N2C[C@H](OC(=O)N3Cc4cccc(F)c4C3)C[C@@H]12 [Compound 626] | < 10000 | < 1000 | 
CC(C)(C)OC(=O)N[C@H]1CCCCC/C=C\[C@@H]2C[C@@]2(C(=O)NS(=O)(=O)C2CC2)NC(=O)[C@@H]2C[C@@H](OC(=O)N3Cc4cccc(N5CCOCC5)c4C3)CN2C1=O [Compound 158] | < 100 | < 100 | 
O=C(N[C@H]1CCCCC/C=C\[C@@H]2C[C@@]2(C(=O)O)NC(=O)[C@@H]2C[C@@H](OC(=O)N3Cc4cccc(F)c4C3)CN2C1=O)OC1CCCC1 [Compound 116] | < 10000 | < 100 | 
CC(C)(C)OC(=O)N[C@H]1CCCCC/C=C\[C@@H]2C[C@@]2(C(=O)NS(=O)(=O)c2cc(Cl)sc2Cl)NC(=O)[C@@H]2C[C@@H](OC(=O)N3Cc4cccc(Cl)c4C3)CN2C1=O [Compound 172] | < 100 | < 100 | 
N#CNC(=O)[C@@]12C[C@H]1/C=C\CCCCC[C@H](NC(=O)OC1CCCC1)C(=O)N1C[C@H](OC(=O)N3Cc4cccc(F)c4C3)CC1C(=O)N2 (stereo partly drawn) [Compound 637] | > 10000 | < 100 | 
CC(C)(C)OC(=O)N[C@H]1CCCCC/C=C\[C@@H]2C[C@@]2(C(=O)O)NC(=O)[C@@H]2C[C@@H](OC(=O)N3Cc4c(Cl)ccc(Cl)c4C3)CN2C1=O [Compound 144] | < 10000 | < 100 | 
CN(C)CCOc1ccc2c(c1)CN(C(=O)O[C@@H]1C[C@H]3C(=O)N[C@]4(C(=O)NS(=O)(=O)C5CC5)C[C@H]4/C=C\CCCCC[C@H](NC(=O)OC4CCCC4)C(=O)N3C1)C2 [Compound 134] | < 100 | < 100 | 
CC(C)(C)OC(=O)N[C@H]1CCCCC/C=C\[C@@H]2C[C@@]2(C(=O)NCC2CC2)NC(=O)[C@@H]2C[C@@H](OC(=O)N3Cc4cccc(Cl)c4C3)CN2C1=O [Compound 627] | < 100 | < 100 | 
CC(C)(O)CC(=O)N[C@H]1CCCCC/C=C\[C@@H]2C[C@@]2(C(=O)NS(=O)(=O)C2CC2)NC(=O)[C@@H]2C[C@@H](OC(=O)N3Cc4cccc(F)c4C3)CN2C1=O [Compound 252] | < 10000 | < 100 | 
CN1CCN(c2ccc3c(c2)CN(C(=O)O[C@@H]2C[C@H]4C(=O)N[C@]5(C(=O)O)C[C@H]5/C=C\CCCCC[C@H](NC(=O)OC(C)(C)C)C(=O)N4C2)C3)CC1 [Compound 175] | > 10000 | < 100 | 
N[C@H]1CCCCC/C=C\[C@@H]2C[C@@]2(C(=O)NS(=O)(=O)C2(Cc3ccccc3)CC2)NC(=O)[C@@H]2C[C@@H](OC(=O)N3Cc4cccc(Cl)c4C3)CN2C1=O [Compound 163] | < 10000 |  | < 100
CC(C)(C)OC(=O)N[C@H]1CCCCC/C=C\[C@@H]2C[C@@]2(C(=O)NCc2cccc(C(=O)O)c2)NC(=O)[C@@H]2C[C@@H](OC(=O)N3Cc4cccc(F)c4C3)CN2C1=O [Compound 617] | > 10000 | < 100 | 
